Measured values: patent US20230233569A1 (Revolution Medicines, Inc., priority 2020, published 2023)
Where two headings read alike, the source gives them in different places.

Tests used:
NCI-H358 (K-Ras G12C) = assay: CellTiter-Glo cell viability assay; assay type: cell-based; conditions: Homo sapiens, NCI-H358, 120 h
In short: (§1)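 Cells already in plates received compound by direct dispensing. After incubation to day 5, plates sat at room temperature roughly 30 minutes, then ATP-based luminescence was measured and values derived from a four-parameter fit of DMSO-normalized data.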

AsPC-1 (K-Ras G12D) [1] = assay: CellTiter-Glo cell viability assay; assay type: cell-based; conditions: Homo sapiens, ASPC1, 120 h
In short: as §1

AsPC-1 (K-Ras G12D) [2] = assay: Potency assay: pERK; assay type: cell-based; conditions: Homo sapiens
KRAS G12S = KRAS G12S (Homo sapiens, UniProt P01116+P62937, G12S); assay: Ras-Raf disruption / FRET / MOA assay (BRAF RBD); assay type: biochemical; conditions: KRAS G12S FRET data IC50, Ras-Raf disruption, with Cyclophilin A
KRAS G12S, sequence (P01116 1-169 isoform P01116-2 G12S limits assumed): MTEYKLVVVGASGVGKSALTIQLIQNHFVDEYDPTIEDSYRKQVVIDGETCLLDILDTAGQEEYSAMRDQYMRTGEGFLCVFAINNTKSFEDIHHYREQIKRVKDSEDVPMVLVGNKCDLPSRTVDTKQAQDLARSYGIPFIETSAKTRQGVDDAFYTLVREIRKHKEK
KRAS G12S, sequence (P62937 whole entry): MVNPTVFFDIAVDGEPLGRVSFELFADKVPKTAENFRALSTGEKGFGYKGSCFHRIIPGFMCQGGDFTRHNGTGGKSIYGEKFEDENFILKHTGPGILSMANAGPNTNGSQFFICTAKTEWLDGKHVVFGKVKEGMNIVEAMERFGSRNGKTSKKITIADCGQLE
In short: (§2)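 Compound-induced Ras–Cyclophilin A ternary complex disrupting BRAF RBD binding, read as IC50 from reduced TR-FRET ratio relative to DMSO. Final: Ras-GMPPNP 12.5 nM, BRAF RBD 50 nM, Cyclophilin A 25 μM, top compound 30 μM (3-fold, 10 points); 3 h at 25 °C, then 1.5 h with detection antibodies.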

KRAS G13D = KRAS G13D (Homo sapiens, UniProt P01116+P62937, G13D); assay: Ras-Raf disruption / FRET / MOA assay (BRAF RBD); assay type: biochemical; conditions: KRAS G13D FRET data IC50, Ras-Raf disruption, with Cyclophilin A
KRAS G13D, sequence (P01116 1-169 isoform P01116-2 G13D limits assumed): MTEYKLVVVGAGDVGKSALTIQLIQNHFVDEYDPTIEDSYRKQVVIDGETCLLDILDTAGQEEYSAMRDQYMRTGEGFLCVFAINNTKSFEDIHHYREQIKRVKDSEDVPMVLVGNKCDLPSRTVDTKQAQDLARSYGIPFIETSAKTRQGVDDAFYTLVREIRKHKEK
KRAS G13D, sequence (P62937 whole entry): as the sequence (P62937 whole entry) above
In short: as §2

KRAS G12D = KRAS G12D (Homo sapiens, UniProt P01116+P62937, G12D); assay: Ras-Raf disruption / FRET / MOA assay (BRAF RBD); assay type: biochemical; conditions: KRAS G12D FRET data IC50, Ras-Raf disruption, with Cyclophilin A
KRAS G12D, sequence (P01116 1-169 isoform P01116-2 G12D limits assumed): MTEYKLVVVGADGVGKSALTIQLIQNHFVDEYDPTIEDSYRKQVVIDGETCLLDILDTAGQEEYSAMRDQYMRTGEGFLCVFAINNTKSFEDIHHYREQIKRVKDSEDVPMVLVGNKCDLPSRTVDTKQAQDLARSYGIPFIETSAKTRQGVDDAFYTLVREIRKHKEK
KRAS G12D, sequence (P62937 whole entry): as the sequence (P62937 whole entry) above
In short: as §2

KRAS WT = KRAS WT (Homo sapiens, UniProt P01116+P62937); assay: Ras-Raf disruption / FRET / MOA assay (BRAF RBD); assay type: biochemical; conditions: KRAS WT FRET data IC50, Ras-Raf disruption, with Cyclophilin A
KRAS WT, sequence (P01116 1-169 isoform P01116-2 limits assumed): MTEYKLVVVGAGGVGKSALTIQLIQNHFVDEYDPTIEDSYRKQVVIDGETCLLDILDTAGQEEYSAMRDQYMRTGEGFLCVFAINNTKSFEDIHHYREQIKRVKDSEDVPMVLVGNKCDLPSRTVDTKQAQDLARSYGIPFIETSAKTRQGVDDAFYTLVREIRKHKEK
KRAS WT, sequence (P62937 whole entry): as the sequence (P62937 whole entry) above
In short: as §2

KRAS G13C = KRAS G13C (Homo sapiens, UniProt P01116+P62937, G13C); assay: Ras-Raf disruption / FRET / MOA assay (BRAF RBD); assay type: biochemical; conditions: KRAS G13C FRET data IC50, Ras-Raf disruption, with Cyclophilin A
KRAS G13C, sequence (P01116 1-169 isoform P01116-2 G13C limits assumed): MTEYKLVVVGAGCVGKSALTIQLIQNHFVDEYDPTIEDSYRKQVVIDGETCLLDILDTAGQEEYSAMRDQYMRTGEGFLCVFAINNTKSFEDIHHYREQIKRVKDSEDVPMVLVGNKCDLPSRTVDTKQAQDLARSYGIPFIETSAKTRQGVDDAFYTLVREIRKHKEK
KRAS G13C, sequence (P62937 whole entry): as the sequence (P62937 whole entry) above
In short: as §2

KRAS G12V = KRAS G12V (Homo sapiens, UniProt P01116+P62937, G12V); assay: Ras-Raf disruption / FRET / MOA assay (BRAF RBD); assay type: biochemical; conditions: KRAS G12V FRET data IC50, Ras-Raf disruption, with Cyclophilin A
KRAS G12V, sequence (P01116 1-169 isoform P01116-2 G12V limits assumed): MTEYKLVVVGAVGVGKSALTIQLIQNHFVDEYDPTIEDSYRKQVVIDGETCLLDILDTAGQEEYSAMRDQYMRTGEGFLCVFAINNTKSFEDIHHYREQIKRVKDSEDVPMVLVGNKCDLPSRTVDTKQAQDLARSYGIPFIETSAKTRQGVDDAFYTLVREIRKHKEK
KRAS G12V, sequence (P62937 whole entry): as the sequence (P62937 whole entry) above
In short: as §2

NRAS G12C = NRAS G12C (Homo sapiens, UniProt P01111+P62937, G12C); assay: Ras-Raf disruption / FRET / MOA assay (BRAF RBD); assay type: biochemical; conditions: NRAS G12C FRET data IC50, NRAS G12C
NRAS G12C, sequence (P01111 whole entry G12C): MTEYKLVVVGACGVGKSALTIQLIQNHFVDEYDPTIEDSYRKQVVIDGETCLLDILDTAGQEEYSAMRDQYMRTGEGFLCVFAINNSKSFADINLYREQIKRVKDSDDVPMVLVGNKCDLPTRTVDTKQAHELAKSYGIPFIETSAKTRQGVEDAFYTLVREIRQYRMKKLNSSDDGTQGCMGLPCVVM
NRAS G12C, sequence (P62937 whole entry): as the sequence (P62937 whole entry) above
In short: as §2

KRAS G12C = KRAS G12C (Homo sapiens, UniProt P01116+P62937, G12C); assay: Ras-Raf disruption / FRET / MOA assay (BRAF RBD); assay type: biochemical; conditions: KRAS G12C FRET data IC50, Ras-Raf disruption, with Cyclophilin A
KRAS G12C, sequence (P01116 1-169 isoform P01116-2 G12C limits assumed): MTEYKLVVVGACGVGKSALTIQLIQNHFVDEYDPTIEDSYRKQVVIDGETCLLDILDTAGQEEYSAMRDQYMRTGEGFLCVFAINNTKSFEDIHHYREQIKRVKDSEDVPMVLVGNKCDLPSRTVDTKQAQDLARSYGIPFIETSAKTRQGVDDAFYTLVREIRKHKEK
KRAS G12C, sequence (P62937 whole entry): as the sequence (P62937 whole entry) above
In short: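 TR-FRET read-out after 1.5 h with anti-His Eu-W1024 (10 nM) and anti-GST APC (50 nM), following 3 h at 25 °C of compound (top 30 μM, 3-fold, 10 points) with 25 μM Cyclophilin A, 12.5 nM GMPPNP-loaded K-Ras G12C and 50 nM BRAF RBD; IC50 reported.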

[3] = read-out: H358 Cell Viability assay data IC50, K-Ras G12C, 5-day treatment
[4] = read-out: AsPC-1 Cell Viability assay data IC50, K-Ras G12D, 5-day treatment
[5] = K-Ras G12C, 5-day treatment, read-out: H358 Cell Viability assay data IC50
[6] = K-Ras G12D, 5-day treatment, read-out: AsPC-1 Cell Viability assay data IC50
[7] = ASPC1, AsPC-1 KRAS G12D, read-out: pERK EC50

Compound	IC50 (NCI-H358 (K-Ras G12C); [3])	IC50 (AsPC-1 (K-Ras G12D) [1]; [4])	EC50 (AsPC-1 (K-Ras G12D) [2]; ASPC1, read-out: pERK EC50)	IC50 (KRAS G12S)	IC50 (KRAS G13D)	IC50 (KRAS G12D)	IC50 (KRAS WT)	IC50 (KRAS G13C)	IC50 (KRAS G12V)	IC50 (NRAS G12C)	IC50 (KRAS G12C)	IC50 (NCI-H358 (K-Ras G12C); [5])	IC50 (AsPC-1 (K-Ras G12D) [1]; [6])	EC50 (AsPC-1 (K-Ras G12D) [2]; [7])
CCn1c(-c2cnccc2COC)c2c3cc(ccc31)-c1cc(O)cc(c1)C[C@H](NC(=O)[C@H](C(C)C)N(C)C(=O)CN(C)C(=O)[C@@H]1CN1Cc1ccccc1)C(=O)N1CCC[C@H](N1)C(=O)OCC(C)(C)C2 (stereo partly drawn) [Example 10]	10 to 100 nM	1000 to 10000 nM	< 5000 nM											
CCn1c(-c2cccnc2[C@H](C)OC)c2c3cc(ccc31)-c1cc(O)cc(c1)C[C@H](NC(=O)[C@H](C(C)C)N(C)C(=O)[C@H](C)N(C)C(=O)[C@H]1CN1)C(=O)N1CCC[C@H](N1)C(=O)OCC(C)(C)C2 [Example 102]	10 to 100 nM	100 to 1000 nM	< 5000 nM	100 to 1000 nM	100 to 1000 nM	100 to 1000 nM	10 to 100 nM	10 to 100 nM	100 to 1000 nM	10 to 100 nM	10 to 100 nM			
CCn1c(-c2cccnc2[C@H](C)OC)c2c3cc(ccc31)-c1cc(O)cc(c1)C[C@H](NC(=O)[C@H](C(C)C)N(C)C(=O)CN(C)C(=O)[C@H]1CN1)C(=O)N1CCC[C@H](N1)C(=O)OCC(C)(C)C2 (single isomer, unassigned) [Example 42A]	< 10 nM		< 5000 nM	10 to 100 nM	10 to 100 nM	10 to 100 nM	10 to 100 nM	< 10 nM	10 to 100 nM	< 10 nM	< 10 nM			
CCn1c(-c2cccnc2[C@H](C)OC)c2c3cc(ccc31)-c1cccc(c1)C[C@H](NC(=O)[C@H](C(C)C)N(C)C(=O)CN(C)C(=O)[C@H]1CN1)C(=O)N1CCC[C@H](N1)C(=O)OCC(C)(C)C2 [Example 107]	100 to 1000 nM	1000 to 10000 nM	< 5000 nM	1000 to 10000 nM	1000 to 10000 nM	1000 to 10000 nM	1000 to 10000 nM	100 to 1000 nM	1000 to 10000 nM	100 to 1000 nM	100 to 1000 nM			
CCn1c(-c2cccnc2[C@H](C)OC)c2c3cc(ccc31)-c1cc(O)cc(c1)C[C@H](NC(=O)[C@H](C(C)C)N(C)C(=O)CN(C)C(=O)[C@H]1CN1Cc1ccccc1F)C(=O)N1CCC[C@H](N1)C(=O)OCC(C)(C)C2 (stereo partly drawn) [Example 155]	< 10 nM	100 to 1000 nM	< 5000 nM	10 to 100 nM	100 to 1000 nM	100 to 1000 nM	10 to 100 nM	10 to 100 nM	10 to 100 nM	< 10 nM	10 to 100 nM			
CCn1c(-c2cnccc2COC)c2c3cc(ccc31)-c1cc(O)cc(c1)C[C@H](NC(=O)[C@H](C(C)C)N(C)C(=O)CN(C)C(=O)[C@H]1N[C@@H]1c1ccccc1)C(=O)N1CCC[C@H](N1)C(=O)OCC(C)(C)C2 [Example 12]	100 to 1000 nM	100 to 1000 nM	< 5000 nM											
CCn1c(-c2cnccc2COC)c2c3cc(ccc31)-c1cc(O)cc(c1)C[C@H](NC(=O)[C@H](C(C)C)N(C)C(=O)CN(C)C(=O)[C@H]1CN1Cc1ccccc1)C(=O)N1CCC[C@H](N1)C(=O)OCC(C)(C)C2 (stereo partly drawn) [Example 9]	10 to 100 nM	1000 to 10000 nM	< 5000 nM											
CCn1c(-c2cnccc2COC)c2c3cc(ccc31)-c1cc(O)cc(c1)C[C@H](NC(=O)[C@H](C(C)C)N(C)C(=O)CN(C)C(=O)[C@@H]1N[C@@H]1C(=O)OC)C(=O)N1CCC[C@H](N1)C(=O)OCC(C)(C)C2 [Example 49]	1000 to 10000 nM	1000 to 10000 nM	< 5000 nM	100 to 1000 nM	100 to 1000 nM	100 to 1000 nM	100 to 1000 nM	10 to 100 nM	100 to 1000 nM	10 to 100 nM	10 to 100 nM			
CCn1c(-c2cccnc2[C@H](C)OC)c2c3cc(ccc31)-c1cc(O)cc(c1)C[C@H](NC(=O)[C@H](C(C)C)N(C)C(=O)CN(C)C(=O)[C@@H]1CN1CCOC)C(=O)N1CCC[C@H](N1)C(=O)OCC(C)(C)C2 (stereo partly drawn) [Example 160]	< 10 nM	100 to 1000 nM	< 5000 nM	10 to 100 nM	100 to 1000 nM	100 to 1000 nM	10 to 100 nM	10 to 100 nM	10 to 100 nM	< 10 nM	10 to 100 nM			
CCn1c(-c2cccnc2[C@H](C)OC)c2c3cc(ccc31)-c1cc(O)cc(c1)C[C@H](NC(=O)[C@H](C(C)C)N(C)C(=O)[C@@H]1CO[C@H](C)CN1C(=O)[C@@H]1CN1)C(=O)N1CCC[C@H](N1)C(=O)OCC(C)(C)C2 [Example 249]												10 to 100 nM	10 to 100 nM	< 5000 nM
CCn1c(-c2cnccc2COC)c2c3cc(ccc31)-c1cc(O)cc(c1)C[C@H](NC(=O)[C@H](C(C)C)N(C)C(=O)CN(C)C(=O)[C@H]1CN1)C(=O)N1CCC[C@H](N1)C(=O)OCC(C)(C)C2 [Example 7]	10 to 100 nM	100 to 1000 nM	< 5000 nM											
CCn1c(-c2cccnc2[C@H](C)OC)c2c3cc(ccc31)-c1cc(O)cc(c1)C[C@H](NC(=O)[C@H](C(C)C)N(C)C(=O)[C@@H]1CO[C@H](C)CN1C(=O)[C@H]1CN1)C(=O)N1CCC[C@H](N1)C(=O)OCC(C)(C)C2 [Example 248]												10 to 100 nM	100 to 1000 nM	< 5000 nM
CCn1c(-c2cccnc2[C@H](C)OC)c2c3cc(ccc31)-c1cc(O)cc(c1)C[C@H](NC(=O)[C@H](C(C)C)N(C)C(=O)[C@@]1(C)CCCN1C(=O)[C@H]1CN1)C(=O)N1CCC[C@H](N1)C(=O)OCC(C)(C)C2 [Example 239]												10 to 100 nM	100 to 1000 nM	< 5000 nM
CCn1c(-c2cnccc2COC)c2c3cc(ccc31)-c1cc(O)cc(c1)C[C@H](NC(=O)[C@H](C(C)C)N(C)C(=O)CN(C)C(=O)[C@@H]1N[C@@H]1C1CC1)C(=O)N1CCC[C@H](N1)C(=O)OCC(C)(C)C2 [Example 103]	100 to 1000 nM	100 to 1000 nM	< 5000 nM											
CCn1c(-c2cnccc2COC)c2c3cc(ccc31)-c1cc(O)cc(c1)C[C@H](NC(=O)[C@H](C(C)C)N(C)C(=O)CN(C)C(=O)[C@@H]1CN1)C(=O)N1CCC[C@H](N1)C(=O)OCC(C)(C)C2 [Example 8]	10 to 100 nM	1000 to 10000 nM	< 5000 nM											
CCn1c(-c2cccnc2[C@H](C)OC)c2c3cc(ccc31)-c1cc(O)cc(c1)C[C@H](NC(=O)[C@H](C(C)C)N(C)C(=O)[C@]1(C)CCCN1C(=O)[C@H]1CN1)C(=O)N1CCC[C@H](N1)C(=O)OCC(C)(C)C2 [Example 243]												100 to 1000 nM	100 to 1000 nM	< 5000 nM
CCn1c(-c2cnccc2COC)c2c3cc(ccc31)-c1cc(O)cc(c1)C[C@H](NC(=O)[C@H](C(C)C)N(C)C(=O)CN(C)C(=O)[C@@H]1N[C@H]1c1ccccc1)C(=O)N1CCC[C@H](N1)C(=O)OCC(C)(C)C2 [Example 11]	100 to 1000 nM	1000 to 10000 nM	< 5000 nM											
CCC(C)N(C)C(=O)c1cncc(-c2c3c4cc(ccc4n2CC)-c2cc(O)cc(c2)C[C@H](NC(=O)[C@H](C(C)C)N(C)C(=O)CN(C)C(=O)[C@H]2CN2)C(=O)N2CCC[C@H](N2)C(=O)OCC(C)(C)C3)c1 (stereo partly drawn) [Example 144]	10 to 100 nM	100 to 1000 nM	< 5000 nM											
CCn1c(-c2cccnc2[C@H](C)OC)c2c3cc(ccc31)-c1cc(O)cc(c1)C[C@H](NC(=O)[C@H](C(C)C)N(C)C(=O)CN(C)C(=O)[C@H]1N[C@@H]1C1CC1)C(=O)N1CCC[C@H](N1)C(=O)OCC(C)(C)C2 [Example 136]	< 10 nM		< 5000 nM	10 to 100 nM							10 to 100 nM			
